Measurements taken from PMC3237458, “PEGylation Potentiates the Effectiveness of an Antagonistic Peptide That Targets the EphB4 Receptor with Nanomolar Affinity” (PLoS ONE, 2011).
pIC50: −log10 of the molar value. “Also recorded” adds a separate entry of the source. Square brackets hold non-standard residues; d marks the D form. Peptide text beside a SMILES is read from it. * marks the point of attachment. Biotin = O=C1N[C@H]2[C@H](CS[C@H]2CCCCC(=O)*)N1; Ahx = NCCCCCC(=O)O

How the values were obtained:
EphB4-ephrin-B2 binding [1] = biological target: T1, EphB4-ephrin-B2 binding (Mus musculus, UniProt P54761); test: ELISA inhibition of EphB4-ephrin-B2 binding (ephrin-B2 AP on immobilized EphB4 Fc); conditions: incubated in conditioned medium for 4 hours before ELISA; Figure 1C
T1 construct: EphB4 Fc, a soluble dimeric form of the EphB4 extracellular domain fused to Fc; purchased R&D Systems, Minneapolis, MN (EphB4 Fc); ephrin-B2 AP made in house from a GeneHunter plasmid; host or cells: HEK 293T cells for ephrin-B2 AP
T1 sequence (P54761 16-539 limits assumed): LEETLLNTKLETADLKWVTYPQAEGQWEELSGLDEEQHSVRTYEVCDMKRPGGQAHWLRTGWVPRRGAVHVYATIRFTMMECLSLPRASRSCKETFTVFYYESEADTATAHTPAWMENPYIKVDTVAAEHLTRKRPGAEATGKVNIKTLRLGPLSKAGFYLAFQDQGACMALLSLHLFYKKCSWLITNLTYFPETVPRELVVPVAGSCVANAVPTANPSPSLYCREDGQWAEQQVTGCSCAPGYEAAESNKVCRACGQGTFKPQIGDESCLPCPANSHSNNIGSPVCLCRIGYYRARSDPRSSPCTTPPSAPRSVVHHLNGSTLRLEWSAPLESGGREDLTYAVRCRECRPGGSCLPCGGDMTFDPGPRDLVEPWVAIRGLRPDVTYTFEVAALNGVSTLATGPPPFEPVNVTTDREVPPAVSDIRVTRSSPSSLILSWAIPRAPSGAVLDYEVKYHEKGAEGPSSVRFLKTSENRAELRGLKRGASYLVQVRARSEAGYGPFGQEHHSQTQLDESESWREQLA
Description: Alkaline phosphatase (AP) fusion proteins were produced by transiently transfecting the mouse EphB4 AP [70] or mouse ephrin-B2 AP plasmids (GeneHunter, Nashville, TN) in HEK 293T cells and growing the cells in serum-free Opti-MEM medium for 2–4 days. If necessary, the culture medium containing the secreted AP protein was concentrated by centrifugation in Amicon 30,000 MW cutoff filters (Millipore, Inc., Temecula, CA). EphB4 and ephrin-B2 AP concentrations were calculated from alkaline phosphatase activity.
EphB4 Fc (1 µg/ml in TBST) was immobilized in protein A-coated plates and incubated for 3 hours with 0.02 nM ephrin-B2 AP in culture medium diluted in TBST in the presence of different concentrations of TNYL-RAW, TNYL-RAW-Fc, TNYL-RAW-streptavidin and PEG-TNYL-RAW. Bound ephrin-B2 AP was quantified by adding pNPP as the substrate and measuring the absorbance at 405 nm. Alkaline phosphatase activity from wells where human Fc (R&D Systems, Minneapolis, MN) was added instead of EphB4 Fc was subtracted as the background. The binding curves were analyzed using non linear regression and the program Prism (GraphPad Software Inc.).

[2] = Peptide stability in cell culture medium / conditioned medium (ELISA of functional peptide); assay type: in vitro ADME
Description: PC3 prostate cancer cells were grown in RPMI 1640 medium (Mediatech, Inc, Herndon, VA) with 10% fetal bovine serum (FBS) (Hyclone, Logan, UT), penicillin and streptomycin. B16-F10-luc-G5 melanoma cells (Caliper Life Sciences, Hopkinton, MA) were grown in Eagle's MEM with Earle's Balanced Salts (EBSS) (Hyclone, Logan, UT) supplemented with 10% FBS, non essential amino acids (Hyclone, Logan, UT), L-glutamine, sodium pyruvate (Hyclone, Logan, UT), MEM vitamin solution (Life Technologies-Invitrogen), penicillin and streptomycin (Omega Scientific, Tarzana, CA). HUVECs (Cascade Biologics, Portland, OG) were grown in Medium 200 supplemented with low serum growth supplements (Cascade Biologics), 10% FBS, penicillin and streptomycin, and fungizone (Omega Scientific, Tarzana, CA). Rat EMCs were grown in DMEM (Mediatech, Inc, Herndon, VA) supplemented with 10% FBS, penicillin and streptomycin. The different modified forms of TNYL-RAW at a concentration of 25 nM were added to fresh medium or culture medium conditioned by the cells for 1–4 days. The culture medium was collected after different time periods and diluted 1∶10 in ELISA wells. The amount of intact TNYL-RAW peptide remaining was measured by using the ELISA assays described above for measurement of binding affinity. In some experiments, the peptide was incubated at 37°C with PC3 cell conditioned medium collected from the cells in the absence or in the presence of protease inhibitors (10 µg/ml aprotinin, 5 µg/ml pepstatin, 10 µg/ml leupeptin and 0.75 mM or phenylmethylsulfonylfluoride (PMSF)).

HUVECs and EMCs = test: Capillary-like tube formation on Matrigel; assay type: cell-based; conditions: HUVECs and EMCs 2:1, Matrigel, 15 hours; TNYL-RAW tested up to 20 µM; Figure 6
Description: An EMC clone expressing EGFP was generated by transducing EMCs (a kind gift from H. Eid) with a lentiviral construct followed by clonal selection. To generate capillary-like tubes, HUVECs (2.8×10^4), EMCs (7.5×10^4) or a mixture of the two cell types (2.8×10^4 HUVECs and 1.4×10^4 EMCs) were grown for 5 to 20 hours in 24-well tissue culture plates (Corning, Corning, NY) precoated with 80 µl Matrigel (BD Bioscience, San Jose, CA) in Medium 200 or DMEM complete culture medium containing PEG-TNYL-RAW or PEG control. In some experiments, mixed cultures were treated with TNYL-RAW or DMSO control. The cells were then fixed for 15 min in 4% formaldehyde in PBS and photographed under a fluorescence microscope. Tube length was quantified using ImageJ software.

EphB4-ephrin-B2 binding [3] = conditions: ELISA assays; read-out: IC50 for inhibition of EphB4-ephrin-B2 binding; cited from earlier work
Description: An explanation for the discrepancy in the potency of the peptide in biochemical and cell culture assays could be that TNYL-RAW is susceptible to degradation by proteases present in cell culture medium. For example, trypsin-like proteases are l ...

EphB4 = conditions: cell culture; cited from earlier work
Description: An explanation for the discrepancy in the potency of the peptide in biochemical and cell culture assays could be that TNYL-RAW is susceptible to degradation by proteases present in cell culture medium. For example, trypsin-like proteases are l ... || Despite the low nanomolar EphB4 binding affinity of TNYL-RAW, the very short half-life of the peptide greatly limits its effectiveness, as exemplified by the high concentrations (10–100 µM) needed to inhibit EphB4-ephrin-B2 interaction in cell culture, [33], [36], [37]. We used three strategies to improve TNYL-RAW stability in cell culture and circulating half-life: fusion with Fc, complexation with streptavidin and covalent coupling to 40 KDa polymeric PEG molecules. Fusion with Fc has been successfully used to improve the stability and pharmacokinetic properties of numerous prot ...

CC[C@H](C)[C@H](NC(=O)[C@@H]1CCCN1C(=O)CNC(=O)[C@H](CC(N)=O)NC(=O)[C@@H]1CCCN1C(=O)[C@H](CO)NC(=O)[C@H](Cc1ccccc1)NC(=O)[C@H](CC(C)C)NC(=O)[C@H](Cc1ccc(O)cc1)NC(=O)[C@H](CC(N)=O)NC(=O)[C@@H](N)[C@@H](C)O)C(=O)N[C@@H](C)C(=O)N[C@@H](CCCNC(=N)N)C(=O)N[C@@H](C)C(=O)N[C@@H](Cc1c[nH]c2ccccc12)C(=O)NCCCCCC(=O)N[C@@H](CCCCNC(=O)CCCC[C@@H]1SC[C@@H]2NC(=O)N[C@@H]21)C(N)=O [TNYL-RAW] (H-TNYLFSPNGPIARAW[Ahx]K(Biotin)-NH2; N-terminus and C-terminus assumed)
Ability to inhibit ephrin-B2-EphB4 interaction after incubation in PC3 cell conditioned medium (EphB4-ephrin-B2 binding [1]): abolished the ability of TNYL-RAW to inhibit ephrin-B2-EphB4 interaction
Peptide loss in culture medium of other cell types ([2]; B16 melanoma cells, HUVECs, EMCs (Figure S1), C6 glioma cells and BPH1 prostate epithelial cells (data not shown), biotinylated TNYL-RAW, ELISA): Rapid TNYL-RAW loss
Half-life in PC3 cell culture medium ([2]; biotinylated TNYL-RAW with PC3 prostate cancer cells grown in the same medium for several days, depends on cell density and time in medium, ELISA capture on EphB4 Fc, streptavidin-HRP, Figure 1A): less than an hour to several hours
Half-life with cells in fresh culture medium versus medium used for 3 days ([2]; biotinylated TNYL-RAW, PC3 cells, medium freshly replaced before adding peptide, ELISA, Figure 1A): had a longer half-life
Peptide loss in PC3 cell conditioned medium with protease inhibitors ([2]; conditioned medium without cells, 37°C, aprotinin, leupeptin, pepstatin and PMSF, ELISA, Figure 1B): blocked by a mixture of protease inhibitors
Effect on capillary-like tube formation in co-cultures at different concentrations (HUVECs and EMCs): does not have significant effects; also recorded: does not have a significant effect
pIC50 (EphB4-ephrin-B2 binding [3]): ~7.82
Peptide concentrations needed to substantially inhibit ephrin-B2-induced EphB4 tyrosine phosphorylation and downstream effects / EphB4-ephrin-B2 interaction in cultured cells (EphB4): 10 to 100 µM
